Read-outs that look alike come from different tables or passages of the source.
Assays:
A2780/CP70 cells [1] = experiment: Annexin V assay, A2780/CP70 cells; assay type: cell-based, human; details: A2780/CP70, 50 μM, 24 h
Method: The Annexin V assay was performed to differentiate healthy cells from early and late apoptotic cells. Cells were seeded in T25 flasks at 2.75 × 10^5 cells per flask and were incubated for 24 h. After the incubation time elapsed, drugs at concentrations of 10, 30, and 50 μM or vehicle were added to the flasks and further incubated for 24 h. Cells were suspended in PBS at a density of 4 × 10^5 cells/mL, followed by centrifugation at 400 g for 5 min. The supernatant was removed and replaced with 100 μL of Annexin V mix, 94 μL of Roche buffer, 2 μL of Annexin V‐CF488A, 2 μL of 10 μg/mL of propodium iodide (PI), and 2 μL of Hoechst 33342 buffer. Hoechst 33342 buffer in the Annexin V mix binds to the nuclei in the sample and fluoresces violet. The early apoptotic cells are stained with Annexin V‐CF488A, which fluoresces green. The non‐viable cells are stained by PI, and the late apoptotic cells are stained by both PI and Annexin V‐CF488A, which fluoresces red and green, respectively. […] After the incubation time elapsed, 40 μL of samples were loaded on to an A‐2 slide and were analyzed immediately using the NC‐3000 system. The scatter plot of the fluorescence intensity of Annexin V‐CF488A versus the fluorescence intensity of PI was used as a representation of cells in different stages of apoptosis.

A2780 cells [2] = experiment: MTT cytotoxicity assay, A2780 cells; details: for IC50: Homo sapiens, read-out: IC50 cytotoxicity
Method: (§1) In separate experiments, cells were seeded in 96‐well plates and after 24 h elapsed they were exposed to different concentrations of drugs or vehicle. Cells were then left in the incubator for a further 24 or 48 h. Then the media was replaced with fresh media containing no drug and the cells were left in the incubator. MTT assay was performed after 96 h elapsed from the time when cells were exposed to drugs or vehicle.
(§2) The cells were then left in the incubator and MTT assay was performed 96 h following the initial exposure to the drugs.
(§3) The selective index (SI) is the ratio of mean IC50 values for non‐cancer cells to cancer cells. […] While the isobologram can be considered predominantly as a graphical depiction of drug interactions, the combination index (CI) is a quantitative representation. It relates the actual drug concentration in the combination to the concentration of the single drug that achieves the same effect. […] Here, CI analysis was used to investigate combinations at 50% cytotoxicity. To this end the IC50 of the viability dose–response curves were determined by non‐linear regression curve fit analysis (GraphPad Prism, v5.00).
(§4) CIA+B is the combination index of A and B; C A the concentration of A applied in combination; C B the concentration of B applied in combination; IC50 A the IC50 of drug A when it was applied individually to the cells; IC50 B = IC50 of drug B when it was applied individually to the cells.

[3] = MTT cytotoxicity assay, non-cancer PNT2 cells; details: human, PNT2 normal prostate epithelial cells
Method: Human ovarian carcinoma cells, A2780 (sensitive to chemotherapeutics), A2780/CP70 (resistant to chemotherapeutics), and non‐cancerous cells including PNT2 (normal prostate epithelial cell line), and/or ARPE19 (human retinal pigment cell line) were maintained according to the ATCC and ECACC guidelines.
In vitro chemosensitivity assays were performed using the MTT assay as previously described.[32], [33] Briefly, at 70% confluency, cells were seeded in 96‐well plates at a density of 2000 cells/well. […] After the allocated contact time had elapsed, the media was removed and 0.5% (w/v) MTT solution diluted in complete media (200 μL) was added to each well. Following a 4 h incubation, the supernatants were removed, and the formazan crystals were dissolved in dimethylsulfoxide (150 μL). The absorbance was read at 540 nm on a Tecan Infinite 50 plate UV reader.

A2780/CP70 cells [4] = experiment: Cell cycle analysis (DAPI, NC-3000), A2780/CP70 cells; assay type: cell-based, human; details: 48 h
Method: (§5) Cells were seeded in T25 flasks at 4 × 10^5 cells per flask and were incubated for 48 h or until they reached confluency. […] After the incubation time elapsed cells were suspended in PBS with a density closer to 1 × 10^6cells/mL. The cells were washed twice with 1× PBS before the addition of 250 μL of lysis buffer (solution 10) supplemented with 10 μg/mL DAPI (solution 12) was added to the samples and incubated for 5 min at 37°C. After incubation, 250 μL of stabilization buffer (solution 11) was added. 12.5 μL of samples were loaded on to an A‐8 slide and were analyzed using the NC‐3000 system.

A2780 cells [5] = experiment: Cell cycle analysis (DAPI, NC-3000), A2780 cells; assay type: cell-based, human; details: 48 h
Method: as §5

A2780 cells [6] = experiment: Mitochondrial membrane potential assay (JC-1), A2780 cells; assay type: cell-based, human; details: A2780, 10-50 μM, 24 h, dose-dependent
Method: The mitochondrial membrane potential assay was performed to detect the loss in mitochondrial potential (de‐polarization), which is a vital step in apoptosis.[36] Cells were seeded in T25 flasks at 4 × 10^5 cells per flask and were incubated for 48 h or until they reached confluency. After the incubation time elapsed, drugs at concentrations of 10, 30, and 50 μM or vehicle were added to the flasks and further incubated for 24 h. After 24 h elapsed, the cells were harvested and suspended in PBS. Cell viability and number were determined by the cell viability assay using via1 cassettes on NC‐3000 system. The samples were diluted in PBS to 1 × 10^6 cells/mL and 2.5 μg/mL of JC‐1 dye was added to each sample. JC‐1 is a […] dye, which stains as fluorescent red as it aggregates in the mitochondrial matrix. In the absence of mitochondrial membrane potential, JC‐1 localizes in the cytosol in its fluorescent green form. Following the addition of JC‐1, the cells were incubated for 10–30 min at 37°C. […] 12.5 μL of samples were loaded on to an A‐8 slide and were analyzed using the NC‐3000 image cytometry. The degree of apoptosis (in proportional to the loss in mitochondrial membrane potential) was measured using a scatter plot of JC‐1 red fluorescence versus JC‐1 green fluorescence.

A2780/CP70 cells [7] = experiment: MTT cytotoxicity assay, A2780/CP70 cells; details: for IC50: Homo sapiens, read-out: IC50 cytotoxicity
Method: as §1, §2, §3, §4

CCCCCc1cc(O)c(C/C=C(\C)CCC=C(C)C)c(O)c1 [CBG, cannabigerol]
Cells in early apoptosis (A2780/CP70 cells [1]): 72 ± 1.4% | Cells in late apoptosis (A2780/CP70 cells [1]): 9 ± 1.4% | IC50 (A2780 cells [2]; A2780, 24 h): 15.3 ± 0.3 µM | IC50 (A2780 cells [2]; A2780, 48 h): 13.9 ± 0.6 µM | IC50 (A2780 cells [2]; A2780, 72 h): 9.4 ± 0.8 µM | IC50 (A2780 cells [2]; A2780, 96 h): 5.7 ± 0.2 µM | Selectivity index (A2780 cells [2]; IC50 ARPE19 / IC50 A2780, 24 h): 2.09 | Selectivity index (A2780 cells [2]; IC50 ARPE19 / IC50 A2780, 48 h): 1.53 | Selectivity index (A2780 cells [2]; IC50 ARPE19 / IC50 A2780, 72 h): 2.04 | Selectivity index (A2780 cells [2]; IC50 ARPE19 / IC50 A2780, 96 h): 3.05 | Selectivity index (A2780 cells [2]; IC50 PNT2 / IC50 A2780, 24 h): 2.43 | Selectivity index (A2780 cells [2]; IC50 PNT2 / IC50 A2780, 48 h): 1.65 | Selectivity index (A2780 cells [2]; IC50 PNT2 / IC50 A2780, 72 h): 2.12 | Selectivity index (A2780 cells [2]; IC50 PNT2 / IC50 A2780, 96 h): 3.20 | IC50 at 24 h [3]: 37.2 ± 2.1 µM | IC50 at 48 h [3]: 22.9 ± 1.5 µM | IC50 at 72 h [3]: 19.9 ± 0.3 µM | IC50 at 96 h [3]: 18.3 ± 1.3 µM | Cells in G0/G1 phase (A2780/CP70 cells [4]; A2780/CP70, 10 μM): 86.4 ± 0.5% | Cells in G0/G1 phase (A2780/CP70 cells [4]; A2780/CP70, 30 μM): 90.6 ± 0.4% | Cells in S phase (A2780/CP70 cells [4]; A2780/CP70, 30 μM): 5.6 ± 0.6% | Cells in G2/M phase (A2780/CP70 cells [4]; A2780/CP70, 50 μM): 16.4 ± 1.9% | Cells in G0/G1 phase (A2780 cells [5]; A2780, 10 μM): 79.1 ± 0.4% | Cells in G0/G1 phase (A2780 cells [5]; A2780, 30 μM): 80.2 ± 1.3% | Cells in G0/G1 phase (A2780 cells [5]; A2780, 50 μM): 67.6 ± 1.1% | Cells in subG1 phase (A2780 cells [5]; A2780, 50 μM): 8.7 ± 0.6% | Percentage of apoptotic cells (loss of mitochondrial membrane potential) (A2780 cells [6]): induced an increase in the percentage of apoptotic cells | IC50 (A2780/CP70 cells [7]; A2780/CP70, 24 h): 17.7 ± 0.1 µM | IC50 (A2780/CP70 cells [7]; A2780/CP70, 48 h): 15.4 ± 0.7 µM | IC50 (A2780/CP70 cells [7]; A2780/CP70, 72 h): 12.3 ± 1.4 µM | IC50 (A2780/CP70 cells [7]; A2780/CP70, 96 h): 7.1 ± 0.8 µM | Selectivity index (A2780/CP70 cells [7]; IC50 ARPE19 / IC50 A2780/CP70, 24 h): 1.81 | Selectivity index (A2780/CP70 cells [7]; IC50 ARPE19 / IC50 A2780/CP70, 48 h): 1.37 | Selectivity index (A2780/CP70 cells [7]; IC50 ARPE19 / IC50 A2780/CP70, 72 h): 1.56 | Selectivity index (A2780/CP70 cells [7]; IC50 ARPE19 / IC50 A2780/CP70, 96 h): 2.45 | Selectivity index (A2780/CP70 cells [7]; IC50 PNT2 / IC50 A2780/CP70, 48 h): 1.48 | Selectivity index (A2780/CP70 cells [7]; IC50 PNT2 / IC50 A2780/CP70, 72 h): 1.59 | Selectivity index (A2780/CP70 cells [7]; IC50 PNT2 / IC50 A2780/CP70, 96 h): 2.56
